Results as given in PubChem BioAssay (NCI).
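Dose response: 5 concentrations. Exposure: 48 h. Format: 96-well plates. Endpoint: linear interpolation; highest concentration if not reached. TGI: total growth inhibition.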

What was measured:
Experiment in all cases: growth of human tumour cells (NCI), 48 h
[1] = tested on: SF-539 CNS
[2] = tested on: MDA-MB-435
[3] = tested on: OVCAR-4 ovarian
[4] = tested on: OVCAR-8 ovarian
[5] = tested on: HCT-116 colon
[6] = tested on: SK-MEL-2 melanoma
[7] = tested on: A549 NSCLC
[8] = tested on: CAKI-1 renal
[9] = tested on: ACHN renal
[10] = tested on: SNB-19 CNS
[11] = tested on: SF-295 CNS
[12] = tested on: NCI-H522 lung

Structure (SMILES)	TGI [1]	TGI [2]	TGI [3]	TGI [4]	TGI [5]	TGI [6]	TGI [7]	TGI [8]	TGI [9]	TGI [10]	TGI [11]	TGI [12]
COc1cc2cc(C(=O)N3CC(CCl)c4ccc(NO)cc43)[nH]c2c(OC)c1OC (stereo not drawn)	1.99 µM	0.481 µM	0.774 µM	11.5 µM	> 100 µM	0.325 µM	> 100 µM	3.44 µM	0.723 µM	11.1 µM	0.6 µM	0.354 µM
CC(C)CC(N)C(=O)NC(CNC(CCC(N)=O)C(=O)NC(CC(C)C)C(=O)NC(CC(C)C)C(=O)O)Cc1ccc2ccccc2c1 (stereo not drawn)	> 10 µM	> 10 µM	> 10 µM	> 10 µM	> 10 µM	> 10 µM	> 10 µM	> 10 µM	> 10 µM	> 10 µM	> 10 µM	
CC1CC(C)(O)C2C3(C)CCCC2(COC3=O)C12CCC1(CCOC1=O)O2 (stereo not drawn)	> 250 µM		> 250 µM	> 250 µM	> 250 µM	> 250 µM	> 250 µM	> 250 µM		> 250 µM	> 250 µM	> 250 µM
O=C(O)C1=C(CO)Oc2cc3c(cc2C1c1ccc2c(c1)OCO2)OCO3 (stereo not drawn)	> 100 µM		> 100 µM	> 100 µM	> 100 µM	> 100 µM	> 100 µM	> 100 µM	> 100 µM	> 100 µM	> 100 µM	
Nc1[nH]c(=O)nc2c1cnn2COCCO	> 100 µM		> 100 µM	> 100 µM	> 100 µM	> 100 µM	> 100 µM	> 100 µM	> 100 µM	> 100 µM	> 100 µM	
O=P1(Oc2ccc(Cl)cc2Cl)Oc2cc3ccccc3cc2O1	> 100 µM		> 100 µM	> 100 µM	> 100 µM	> 100 µM	> 100 µM	> 100 µM		> 100 µM	> 100 µM	82.6 µM
CN(C)CCC(=O)[C@@]1(O)CC[C@H]2[C@@H]3CC=C4C[C@@H](O)CC[C@]4(C)[C@H]3CC[C@@]21C	8.61 µM	45.5 µM	> 78.2 µM	40 µM	32.6 µM	37.1 µM	> 86.8 µM	34.6 µM	29.5 µM	> 64.8 µM	> 73.9 µM	25.3 µM
Nc1c(S(=O)(=O)O)cc(S(=O)(=O)O)c2ccc(N=Nc3ccccc3)c(O)c12	> 100 µM	> 100 µM	> 100 µM	> 100 µM	> 100 µM	> 100 µM	> 100 µM	> 100 µM	> 100 µM	> 100 µM	> 100 µM	> 100 µM
CCn1c2ccccc2c2ccc(C3C4C(=O)N(c5cccc6ccccc56)C(=O)C4ON3C(C(N)=O)c3ccccc3)cc21 (stereo not drawn)	> 25 µM	> 25 µM	> 25 µM	> 25 µM	> 25 µM	> 25 µM	> 25 µM	11.3 µM	> 25 µM	> 25 µM	> 25 µM	> 25 µM
COC(=O)[C@]12CC[C@H]3CN(S(=O)(=O)c4ccc(C)cc4)[C@H]([C@H]31)[C@H](c1ccco1)N2S(=O)(=O)c1ccc(C)cc1	> 100 µM	55.8 µM	> 100 µM	> 100 µM	> 100 µM	> 100 µM	> 100 µM	> 100 µM	> 100 µM	> 100 µM	> 100 µM	> 100 µM
Cc1nn(CNc2ccc(F)c(Cl)c2)c(=S)n1/N=C/c1ccc(-c2ccc(Cl)cc2Cl)o1	34.8 µM	39 µM	50 µM	48.5 µM	30.7 µM	41.3 µM		35.8 µM	30.7 µM		33.7 µM	29.7 µM
CC(C)N(CC(=O)O)CC(=O)O	> 100 µM	> 100 µM	> 100 µM	> 100 µM	> 100 µM	> 100 µM	> 100 µM	> 100 µM	> 100 µM	> 100 µM	> 100 µM	> 100 µM
